Assay results taken from PubChem BioAssay (NCI).
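All cell lines were grown in 96-well plates and treated with compound for 48 hours. TGI: concentration producing complete growth inhibition.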

What was measured:
Test in all cases: inhibition of tumour cell growth, NCI panel, 48 h
[1] = test system: OVCAR-5 ovarian
[2] = test system: SK-MEL-2 melanoma
[3] = test system: OVCAR-3 ovarian
[4] = test system: OVCAR-8 ovarian
[5] = test system: SK-MEL-28 melanoma
[6] = test system: ACHN renal
[7] = test system: HT29 colon
[8] = test system: NCI-H226 lung
[9] = test system: NCI/ADR-RES ovarian
[10] = test system: NCI-H460 lung
[11] = test system: CAKI-1 renal
[12] = test system: RXF 393 renal

Measured: TGI

Cc1cn(C2CCN(CC3COC(C)(C)O3)O2)c(=O)[nH]c1=O (configuration not stated)
> 100 µM: all assays above
